# Results taken from patent US7078177B2, “Method of assaying for agonists or antagonist of Dynorphin A binding to the MAS receptor” (AstraZeneca AB, priority 2000, dated 2006).
# Ends that are not written are not given here.
# Assays:
# MAS receptor = assay: FLIPR calcium mobilization assay, HEK-293 cells expressing MAS receptor; format: cell-based, rat and human; settings: HEK-293 cells expressing the clone MAS receptor; Fluo-3
# Procedure: HEK-293 cells were transfected with a mammalian expression construct coding for the rat and human MAS receptor (pcDNA 3.1 vector, Invitrogen) using the Superfect reagent (Qiagen). A stable receptor pool of MAS receptor was developed by applying a selection marker (G418, 0.9 mg/ml) and the cells were maintained in this selection medium. The presence of mRNA specific for clone MAS receptor was assessed by Northern blot analysis and by the reverse transcriptase polymerase chain reaction (RT-PCR).
# (§1) A functional assay was performed with FLIPR (Fluorescent Imaging Plate Reader, Molecular Devices) using the fluorescent calcium indicator Fluo-3 (Molecular Probes) on a 96 well platform. HEK-293 cells, either expressing the receptor or wild type cells, were loaded with Fluo-3 as follows. Stable HEK-293 clones expressing rat and human MAS receptor or parental cells were plated at a density of 10,000 cells/well in a 96 well plate. On the day of the experiment, the MAS receptor cells were loaded with fluorescent solution (Dulbecco's modified medium with 10% fetal bovine serum containing 4 μM Fluo-3 and 20% pluronic acid). The cells were incubated at 37° C. for one hour in a humidified chamber. Following the incubation step, cells were washed five times in Hanks' with 20 mM Hepes and 0.1% BSA (pH 7.4). The cells were analyzed using the FLIPR system to measure the mobilization of intracellular calcium in response to different compounds.
# parental HEK-293 cells = assay: FLIPR calcium mobilization assay, parental (non-transfected) HEK-293 cells; format: cell-based; settings: wild type (parental, non-transfected) HEK-293 cells; Fluo-3
# Procedure: as §1
# [1] = non-thermal and mechanical analgesia, administered ICV; cited from earlier work
# [2] = test system: mouse peritoneal macrophages; settings: administered to mice; not inhibited by naloxone; cited from earlier work
Substance,calcium response (FLIPR signal) (MAS receptor),calcium response (FLIPR signal) (parental HEK-293 cells),analgesia [1],phagocytosis [2]
"Dynorphin A 1-13: analogue (fragment 1-13) of Dynorphin A (YGGFLRRIRPKLK; Dynorphin A(1-13); UniProt P01213 207-219, looked up, fragment)",consistently elicited signals,not in the wild type cells,–,–
YGGFLRRIRPKLKWDNQ-COOH (YGGFLRRIRPKLKWDNQ-OH) [Dynorphin A],consistently elicited signals,not in the wild type cells,moderately effective,enhanced phagocytosis
"YGGFLRRIRPKLKWDNQ-COOH or NH2 (not fully specified; printed as YGGFLRRIRPKLKWDNQ-COOH or NH2) [Dynorphin A-NH2, C-terminal amide analogue of Dynorphin A]",consistently elicited signals,not in the wild type cells,–,–
